This is an account of results in patent US11970474B2, “Substituted benzodiazoles and use thereof in therapy” (THOMAS HELLEDAYS STIFTELSE FÖR MEDICINSK FORSKNING, priority 2018, dated 2024).

Structures are written as SMILES.

The target in this assay is OGG1 (Homo sapiens (Human), UniProt O15527). Description: In vitro OGG1 activity assay. To be noted: 800 pM OGG1 enzyme, 2 nM human APEX1, 10 nM 8-oxoA:C substrate. It counts as biochemical. In outline: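 Fluorescence-release assay on a duplex oligonucleotide carrying an OGG1 substrate base beside a fluorophore, quenched from the complementary strand. Excess APEX1 cleaves the abasic site left by base excision, melting the duplex and unquenching the fluorophore. Compounds in DMSO were dispensed before enzyme and substrate, and fluorescein signal was read.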
Chain of OGG1 (O15527 whole entry): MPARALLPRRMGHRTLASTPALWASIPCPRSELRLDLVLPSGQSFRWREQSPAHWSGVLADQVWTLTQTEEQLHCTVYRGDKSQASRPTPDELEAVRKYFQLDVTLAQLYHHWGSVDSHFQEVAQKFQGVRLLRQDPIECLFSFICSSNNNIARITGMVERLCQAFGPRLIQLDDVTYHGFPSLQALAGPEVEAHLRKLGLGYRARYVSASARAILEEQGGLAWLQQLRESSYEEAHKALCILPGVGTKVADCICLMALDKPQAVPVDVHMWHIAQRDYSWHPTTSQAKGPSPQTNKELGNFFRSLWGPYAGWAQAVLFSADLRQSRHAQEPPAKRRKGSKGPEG
As usually defined, the IC50 is the concentration that inhibits the measured activity by half. Read a high IC50 as weaker potency. `COc1cc(NC(=O)[C@H]2CC[C@@H](n3c(=O)[nH]c4c(C(=O)NCCNS(C)(=O)=O)cccc43)CC2)ccc1C` [Example 251, N-(2-Methanesulfonamidoethyl)-2-oxo-1-[cis-4-[(3-methoxy-4-methylphenyl)carbamoyl]cyclohexyl]-2,3-dihydro-1H-1,3-benzodiazole-4-carboxamide] yielded an IC50 of 4.25 nM.
To `O=C(Nc1ccc(I)cc1)N1CCC(n2c(=O)[nH]c3c(O)cccc32)CC1` [Example 6, 4-(4-Hydroxy-2-oxo-2,3-dihydro-1H-1,3-benzodiazol-1-yl)-N-(4-iodophenyl)piperidine-1-carboxamide] belongs 540 nM.
As to `COc1cc(NC(=O)[C@H]2CC[C@@H](n3c(=O)[nH]c4c(C(=O)N(C)C)cccc43)CC2)ccc1C` [Example 260, N,N-Dimethyl-2-oxo-1-[cis-4-[(3-methoxy-4-methylphenyl)carbamoyl]cyclohexyl]-2,3-dihydro-1H-1,3-benzodiazole-4-carboxamide], half-maximal inhibition (IC50) was put at 343 nM.
The figure for `Cc1nc(NC(=O)N2CCC(n3c(=O)[nH]c4c(Br)cccc43)CC2)ccc1Cl` [Example 111, 4-(4-Bromo-2-oxo-2,3-dihydro-1H-1,3-benzodiazol-1-yl)-N-(5-chloro-6-methylpyridin-2-yl)piperidine-1-carboxamide] is 5810 nM; for `COc1ccc(NC(=O)[C@H]2CC[C@@H](n3c(=O)[nH]c4ccc(F)cc43)CC2)cc1C` [Example 217, Cis-4-(6-fluoro-2-oxo-2,3-dihydro-1H-1,3-benzodiazol-1-yl)-N-(4-methoxy-3-methylphenyl)cyclohexane-1-carboxamide] it is 586 nM.
The figure for `Cc1ccc(NC(=O)[C@H]2CC[C@@H](n3c(=O)[nH]c4c(Br)cccc43)CC2)nc1` [Example 189, Cis-4-(4-bromo-2-oxo-2,3-dihydro-1H-1,3-benzodiazol-1-yl)-N-(5-methylpyridin-2-yl)cyclohexane-1-carboxamide] is 1760 nM; for `COC(=O)NC1CCN(c2cccc3c2[nH]c(=O)n3[C@H]2CC[C@@H](C(=O)Nc3ccc(C)c(OC)c3)CC2)C1` (stereo partly drawn) [Example 316, Methyl N-(1-{2-oxo-1-[cis-4-[(3-methoxy-4-methylphenyl)carbamoyl]cyclohexyl]-2,3-dihydro-1H-1,3-benzodiazol-4-yl}pyrrolidin-3-yl)carbamate] it is 38 nM.
`COc1cccc(NC(=O)[C@H]2CC[C@@H](n3c(=O)[nH]c4c(Br)cccc43)CC2)c1` [Example 165, (Cis)-4-(4-bromo-2-oxo-2,3-dihydro-1H-1,3-benzodiazol-1-yl)-N-(3-methoxyphenyl)cyclohexane-1-carboxamide]: half-maximal inhibition (IC50) was put at 1390 nM.
To `COc1ccc2c(c1)[nH]c(=O)n2C1CCN(C(=O)Nc2ccc(OC)c(Cl)c2)CC1` [Example 172, N-(3-Chloro-4-methoxyphenyl)-4-(5-methoxy-2-oxo-2,3-dihydro-1H-1,3-benzodiazol-1-yl)piperidine-1-carboxamide] belongs 7790 nM; to `COc1ccc(NC(=O)[C@H]2CC[C@@H](n3c(=O)[nH]c4ncccc43)CC2)cc1C` [Example 233, Cis-N-(4-methoxy-3-methylphenyl)-4-{2-oxo-1H,2H,3H-imidazo[4,5-b]pyridin-1-yl}cyclohexane-1-carboxamide], 47.6 nM.
The figure for `COc1ccc(NC(=O)[C@H]2CC[C@@H](n3c(=O)[nH]c4c(OC)cccc43)CC2)cc1` [Example 205, Cis-4-(4-methoxy-2-oxo-2,3-dihydro-1H-1,3-benzodiazol-1-yl)-N-(4-methoxyphenyl)cyclohexane-1-carboxamide] is 74.5 nM.
The figure for `COc1cc(NC(=O)[C@H]2CC[C@@H](n3c(=O)[nH]c4c(NC(=O)[C@@H]5CCN5)cccc43)CC2)ccc1C` [Example 287, (2S)—N-{2-Oxo-1-[cis-4-[(3-methoxy-4-methylphenyl)carbamoyl]cyclohexyl]-2,3-dihydro-1H-1,3-benzodiazol-4-yl}azetidine-2-carboxamide] is 27.1 nM.
Consider `COc1ccc(NC(=O)[C@H]2CC[C@@H](n3c(=O)[nH]c4c(F)cccc43)CC2)cc1F` [Example 213, Cis-4-(4-fluoro-2-oxo-2,3-dihydro-1H-1,3-benzodiazol-1-yl)-N-(3-fluoro-4-methoxyphenyl)cyclohexane-1-carboxamide], for which inhibition was half-maximal at 155 nM (IC50).
The figure for `COc1cc(NC(=O)[C@H]2CC[C@@H](n3c(=O)[nH]c4cnccc43)CC2)ccc1C` [Example 236, Cis-N-(3-methoxy-4-methylphenyl)-4-{2-oxo-1H,2H,3H-imidazo[4,5-c]pyridin-1-yl}cyclohexane-1-carboxamide] is 196 nM.
The figure for `COc1ccc(NC(=O)[C@H]2CC[C@@H](n3c(=O)[nH]c4c(F)cccc43)CC2)cc1` [Example 211, Cis-4-(4-fluoro-2-oxo-2,3-dihydro-1H-1,3-benzodiazol-1-yl)-N-(4-methoxyphenyl)cyclohexane-1-carboxamide] is 153 nM; for `O=C(Nc1ccc(I)cc1)N1CCC(n2c(=O)[nH]c3c(C4CC4)cccc32)CC1` [Example 31, 4-(4-Cyclopropyl-2-oxo-2,3-dihydro-1H-1,3-benzodiazol-1-yl)-N-(4-iodophenyl)piperidine-1-carboxamide] it is 1090 nM; for `Nc1cccc(-c2cccc3c2[nH]c(=O)n3C2CCN(C(=O)Nc3ccc(Cl)c(Cl)c3)CC2)c1` [Example 29, 4-[4-(3-Aminophenyl)-2-oxo-2,3-dihydro-1H-1,3-benzodiazol-1-yl]-N-(3,4-dichlorophenyl)piperidine-1-carboxamide] it is 2060 nM.
Regarding `COc1cc(NC(=O)[C@H]2CC[C@@H](n3c(=O)[nH]c4c(Nc5ncccn5)cccc43)CC2)ccc1C` [Example 279, Cis-N-(3-methoxy-4-methylphenyl)-4-{2-oxo-4-[(pyrimidin-2-yl)amino]-2,3-dihydro-1H-1,3-benzodiazol-1-yl}cyclohexane-1-carboxamide], it took 74.5 nM to reach half-maximal inhibition (IC50).
The figure for `Cc1cccc(NC(=O)[C@H]2CC[C@@H](n3c(=O)[nH]c4c(Br)cccc43)CC2)c1C` [Example 167, (Cis)-4-(4-bromo-2-oxo-2,3-dihydro-1H-1,3-benzodiazol-1-yl)-N-(2,3-dimethylphenyl)cyclohexane-1-carboxamide] is 3890 nM; for `COc1cc(Cl)cc(NC(=O)[C@H]2CC[C@@H](n3c(=O)[nH]c4c(Br)cccc43)CC2)c1` [Example 163, (Cis)-4-(4-bromo-2-oxo-2,3-dihydro-1H-1,3-benzodiazol-1-yl)-N-(3-chloro-5-methoxyphenyl)cyclohexane-1-carboxamide] it is 3160 nM; for `O=C(Nc1ccc(I)c(Cl)c1)N1CCC(n2c(=O)[nH]c3cc(Cl)ccc32)CC1` [Example 17, 4-(5-Chloro-2-oxo-2,3-dihydro-1H-1,3-benzodiazol-1-yl)-N-(3-chloro-4-iodophenyl)piperidine-1-carboxamide] it is 1420 nM.
For `Cc1cc(NC(=O)[C@H]2CC[C@@H](n3c(=O)[nH]c4c(Br)cccc43)CC2)no1` [Example 169, (Cis)-4-(4-bromo-2-oxo-2,3-dihydro-1H-1,3-benzodiazol-1-yl)-N-(5-methyl-1,2-oxazol-3-yl)cyclohexane-1-carboxamide], it took 9090 nM to reach half-maximal inhibition (IC50).
Take `CC1CC(n2c(=O)[nH]c3c(Br)cccc32)CCN1C(=O)Nc1ccc(Cl)c(Cl)c1` (stereo not drawn) [Example 112, 4-(4-Bromo-2-oxo-2,3-dihydro-1H-benzo[d]imidazol-1-yl)-N-(3,4-dichlorophenyl)-2-methylpiperidine-1-carboxamide]: the IC50 was 4940 nM.
In turn, `O=c1[nH]c2c(Br)cccc2n1[C@H]1CC[C@@H](C(=O)Nc2cncc(Cl)c2)CC1` [Example 188, Cis-4-(4-bromo-2-oxo-2,3-dihydro-1H-1,3-benzodiazol-1-yl)-N-(5-chloropyridin-3-yl)cyclohexane-1-carboxamide] gave an IC50 of 4630 nM. The IC50 values of the last two molecules are within 1.5-fold of each other.
To `COc1cc(NC(=O)[C@H]2CC[C@@H](n3c(=O)[nH]c4c(C(=O)NCCNC(C)=O)cccc43)CC2)ccc1C` [Example 253, Cis-4-{4-[(2-acetamidoethyl)carbamoyl]-2-oxo-2,3-dihydro-1H-1,3-benzodiazol-1-yl}-N-(3-methoxy-4-methylphenyl)cyclohexane-1-carboxamide] belongs 6.79 nM.
`O=c1[nH]c2c(Br)cccc2n1[C@H]1CC[C@@H](C(=O)Nc2ccc(OC(F)(F)F)c(Cl)c2)CC1` [Example 134, (Cis)-4-(4-bromo-2-oxo-2,3-dihydro-1H-1,3-benzodiazol-1-yl)-N-[3-chloro-4-(trifluoromethoxy)phenyl]cyclohexane-1-carboxamide] came in with an IC50 of 2740 nM.
To `COc1ccc(NC(=O)[C@H]2CC[C@@H](n3c(=O)[nH]c4c(OC)cccc43)CC2)cc1F` [Example 207, Cis-N-(3-fluoro-4-methoxyphenyl)-4-(4-methoxy-2-oxo-2,3-dihydro-1H-1,3-benzodiazol-1-yl)cyclohexane-1-carboxamide] belongs 73.6 nM.
To `COc1cc(NC(=O)[C@H]2CC[C@@H](n3c(=O)[nH]c4c(OCCOC5CCCCC5)cccc43)CC2)ccc1C` [Example 326, Cis-4-(4-(2-(cyclohexyloxy)ethoxy)-2-oxo-2,3-dihydro-1H-benzo[d]imidazol-1-yl)-N-(3-methoxy-4-methylphenyl)cyclohexanecarboxamide] belongs 118 nM; to `O=C(Nc1ccc(I)cc1)N1CCC(n2c(=O)[nH]c3c(-c4ccc[nH]4)cccc32)CC1` [Example 25, N-(4-iodophenyl)-4-[2-oxo-4-(1H-pyrrol-2-yl)-2,3-dihydro-1H-1,3-benzodiazol-1-yl]piperidine-1-carboxamide], 765 nM; to `COc1ccc(NC(=O)N2CCC(n3c(=O)[nH]c4c(N5Cc6cn[nH]c6C5)cccc43)CC2)cc1Cl` [Example 108, N-(3-chloro-4-methoxyphenyl)-4-(2-oxo-4-{1H,4H,5H,6H-pyrrolo[3,4-c]pyrazol-5-yl}-2,3-dihydro-1H-1,3-benzodiazol-1-yl)piperidine-1-carboxamide], 2530 nM.
